From US9738660B2, “Selective inhibitors for protein kinases and pharmaceutical composition and use thereof” (National Chiao Tung University, priority 2014, dated 2017)
Like-named read-outs stand apart in the source and are kept apart here.

Columns and labels:
Experiment in all cases: Kinase Profiler, residual kinase activity
Assay type in all cases: biochemical
INSR = target: T1, INSR (Homo sapiens, UniProt P06213); conditions: read-out: percentage of the remaining kinase activity
T1 construct: purchased Research Biology Corp. (http://www.reactionbiology.com)
Description: (§1) Kinase Profiler services provided by […]. (http://www.reactionbiology.com) were used to analyze the data of the 9 type-S protein kinase inhibitors against the 40 types of protein kinases.

STK16 = target: T2, STK16 (Homo sapiens, UniProt O75716); conditions: read-out: percentage of the remaining kinase activity
T2 construct: purchased Research Biology Corp. (http://www.reactionbiology.com)
T2 sequence (O75716 whole entry): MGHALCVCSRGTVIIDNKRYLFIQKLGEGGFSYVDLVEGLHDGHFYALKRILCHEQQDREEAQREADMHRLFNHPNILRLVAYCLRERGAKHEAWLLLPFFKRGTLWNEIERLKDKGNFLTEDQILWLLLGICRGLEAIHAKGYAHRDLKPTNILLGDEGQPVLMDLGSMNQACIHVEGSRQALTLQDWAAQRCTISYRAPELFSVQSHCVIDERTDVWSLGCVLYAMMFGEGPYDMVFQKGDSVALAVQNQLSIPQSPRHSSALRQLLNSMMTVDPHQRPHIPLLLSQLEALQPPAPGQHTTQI
Description: as §1

OXSR1 = target: T3, OXSR1 (Homo sapiens, UniProt O95747); conditions: read-out: percentage of the remaining kinase activity
T3 construct: purchased Research Biology Corp. (http://www.reactionbiology.com)
Description: as §1

JAK2 = JAK2 (Homo sapiens, UniProt O60674); conditions: read-out: percentage of the remaining kinase activity
Sequence of JAK2 (O60674 whole entry): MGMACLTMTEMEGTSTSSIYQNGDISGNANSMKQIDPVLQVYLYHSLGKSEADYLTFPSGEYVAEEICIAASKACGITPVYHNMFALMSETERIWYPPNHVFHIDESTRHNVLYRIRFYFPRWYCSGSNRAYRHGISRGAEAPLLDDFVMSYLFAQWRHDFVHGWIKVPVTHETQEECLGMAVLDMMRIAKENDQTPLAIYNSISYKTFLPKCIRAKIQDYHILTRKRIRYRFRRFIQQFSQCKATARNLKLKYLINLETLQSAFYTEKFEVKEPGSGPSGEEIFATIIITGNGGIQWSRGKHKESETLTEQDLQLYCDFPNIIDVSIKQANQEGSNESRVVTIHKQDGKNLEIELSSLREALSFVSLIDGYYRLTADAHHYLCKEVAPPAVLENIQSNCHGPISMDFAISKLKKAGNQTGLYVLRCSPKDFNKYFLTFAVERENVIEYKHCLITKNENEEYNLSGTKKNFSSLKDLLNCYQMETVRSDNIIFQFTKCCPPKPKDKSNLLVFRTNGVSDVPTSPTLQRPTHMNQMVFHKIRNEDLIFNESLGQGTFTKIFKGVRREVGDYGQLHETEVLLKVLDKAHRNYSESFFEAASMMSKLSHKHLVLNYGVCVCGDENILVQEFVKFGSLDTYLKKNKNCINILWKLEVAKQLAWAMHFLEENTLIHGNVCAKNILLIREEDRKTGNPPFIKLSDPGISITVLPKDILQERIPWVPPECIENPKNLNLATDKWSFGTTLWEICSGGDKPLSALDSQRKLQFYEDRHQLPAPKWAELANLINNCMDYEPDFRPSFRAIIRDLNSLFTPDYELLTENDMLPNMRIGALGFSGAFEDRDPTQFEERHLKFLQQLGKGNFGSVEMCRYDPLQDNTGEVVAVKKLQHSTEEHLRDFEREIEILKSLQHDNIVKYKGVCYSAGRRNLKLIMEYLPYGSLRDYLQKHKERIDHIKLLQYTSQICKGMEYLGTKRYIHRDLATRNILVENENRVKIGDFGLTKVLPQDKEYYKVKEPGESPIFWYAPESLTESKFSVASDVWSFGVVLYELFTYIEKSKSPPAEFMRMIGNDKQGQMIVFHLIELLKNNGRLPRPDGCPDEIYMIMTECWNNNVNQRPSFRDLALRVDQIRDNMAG
Description: as §1

CAMK2D = CAMK2D (Homo sapiens, UniProt Q13557); conditions: for remaining activity at 0.5 µM: read-out: percentage of the remaining kinase activity
Description: as §1

PDPK1 = target: T4, PDPK1 (Homo sapiens, UniProt O15530); conditions: read-out: percentage of the remaining kinase activity
T4 sequence (O15530 1-556): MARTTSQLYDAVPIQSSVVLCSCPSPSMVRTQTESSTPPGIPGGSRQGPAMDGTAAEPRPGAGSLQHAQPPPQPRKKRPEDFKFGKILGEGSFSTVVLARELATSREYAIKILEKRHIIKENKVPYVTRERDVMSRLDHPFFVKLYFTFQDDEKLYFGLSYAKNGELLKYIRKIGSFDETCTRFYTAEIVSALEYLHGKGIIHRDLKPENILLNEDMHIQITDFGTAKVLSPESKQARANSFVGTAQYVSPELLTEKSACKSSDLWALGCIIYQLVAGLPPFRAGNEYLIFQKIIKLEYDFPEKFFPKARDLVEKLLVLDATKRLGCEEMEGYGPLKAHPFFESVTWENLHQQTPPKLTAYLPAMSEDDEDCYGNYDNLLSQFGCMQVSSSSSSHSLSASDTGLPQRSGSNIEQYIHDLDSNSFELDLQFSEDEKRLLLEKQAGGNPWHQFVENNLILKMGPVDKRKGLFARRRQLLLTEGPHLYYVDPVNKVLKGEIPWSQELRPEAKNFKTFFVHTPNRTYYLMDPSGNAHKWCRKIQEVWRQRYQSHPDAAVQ
Description: as §1

AXL = target: T5, AXL (Homo sapiens, UniProt P30530); conditions: read-out: percentage of the remaining kinase activity
T5 construct: purchased Research Biology Corp. (http://www.reactionbiology.com)
T5 sequence (P30530 26-894): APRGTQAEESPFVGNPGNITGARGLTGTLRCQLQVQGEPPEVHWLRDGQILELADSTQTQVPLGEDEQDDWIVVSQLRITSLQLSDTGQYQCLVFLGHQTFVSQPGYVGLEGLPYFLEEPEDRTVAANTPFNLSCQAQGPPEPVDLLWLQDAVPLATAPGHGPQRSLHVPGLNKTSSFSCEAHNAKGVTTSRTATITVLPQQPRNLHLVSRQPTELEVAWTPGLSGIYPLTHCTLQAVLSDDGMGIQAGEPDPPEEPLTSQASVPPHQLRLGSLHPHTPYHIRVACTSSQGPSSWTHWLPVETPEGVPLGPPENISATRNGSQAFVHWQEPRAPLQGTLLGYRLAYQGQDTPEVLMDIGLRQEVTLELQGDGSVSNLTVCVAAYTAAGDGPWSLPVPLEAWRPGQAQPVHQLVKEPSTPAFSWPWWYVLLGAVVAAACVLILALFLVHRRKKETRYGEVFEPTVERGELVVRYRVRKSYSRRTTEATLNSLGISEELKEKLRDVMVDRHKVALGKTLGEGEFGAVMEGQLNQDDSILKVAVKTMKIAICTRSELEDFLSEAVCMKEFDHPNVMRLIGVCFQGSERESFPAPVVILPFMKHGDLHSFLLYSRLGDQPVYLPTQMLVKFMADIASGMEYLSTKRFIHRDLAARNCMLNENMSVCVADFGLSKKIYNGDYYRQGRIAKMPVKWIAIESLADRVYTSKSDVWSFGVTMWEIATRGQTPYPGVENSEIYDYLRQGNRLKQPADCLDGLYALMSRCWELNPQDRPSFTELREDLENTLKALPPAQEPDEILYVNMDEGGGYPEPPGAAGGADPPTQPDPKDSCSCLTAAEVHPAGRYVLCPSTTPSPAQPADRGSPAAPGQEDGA
Description: as §1

MAP3K7 = target: T6, MAP3K7 (Homo sapiens, UniProt O43318); conditions: read-out: percentage of the remaining kinase activity
T6 construct: purchased Research Biology Corp. (http://www.reactionbiology.com)
T6 sequence (O43318 1-303 limits assumed): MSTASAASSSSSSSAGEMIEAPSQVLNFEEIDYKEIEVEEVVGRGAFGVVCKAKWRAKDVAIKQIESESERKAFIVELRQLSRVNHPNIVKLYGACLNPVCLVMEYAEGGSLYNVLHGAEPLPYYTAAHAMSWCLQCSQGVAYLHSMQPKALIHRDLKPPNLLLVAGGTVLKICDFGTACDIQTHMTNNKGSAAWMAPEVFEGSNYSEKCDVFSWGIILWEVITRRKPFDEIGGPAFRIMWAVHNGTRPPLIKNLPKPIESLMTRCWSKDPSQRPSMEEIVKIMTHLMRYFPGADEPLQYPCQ
Description: as §1

KDR = KDR (Homo sapiens, UniProt P35968); conditions: read-out: percentage of the remaining kinase activity
Sequence of KDR (P35968 20-1356): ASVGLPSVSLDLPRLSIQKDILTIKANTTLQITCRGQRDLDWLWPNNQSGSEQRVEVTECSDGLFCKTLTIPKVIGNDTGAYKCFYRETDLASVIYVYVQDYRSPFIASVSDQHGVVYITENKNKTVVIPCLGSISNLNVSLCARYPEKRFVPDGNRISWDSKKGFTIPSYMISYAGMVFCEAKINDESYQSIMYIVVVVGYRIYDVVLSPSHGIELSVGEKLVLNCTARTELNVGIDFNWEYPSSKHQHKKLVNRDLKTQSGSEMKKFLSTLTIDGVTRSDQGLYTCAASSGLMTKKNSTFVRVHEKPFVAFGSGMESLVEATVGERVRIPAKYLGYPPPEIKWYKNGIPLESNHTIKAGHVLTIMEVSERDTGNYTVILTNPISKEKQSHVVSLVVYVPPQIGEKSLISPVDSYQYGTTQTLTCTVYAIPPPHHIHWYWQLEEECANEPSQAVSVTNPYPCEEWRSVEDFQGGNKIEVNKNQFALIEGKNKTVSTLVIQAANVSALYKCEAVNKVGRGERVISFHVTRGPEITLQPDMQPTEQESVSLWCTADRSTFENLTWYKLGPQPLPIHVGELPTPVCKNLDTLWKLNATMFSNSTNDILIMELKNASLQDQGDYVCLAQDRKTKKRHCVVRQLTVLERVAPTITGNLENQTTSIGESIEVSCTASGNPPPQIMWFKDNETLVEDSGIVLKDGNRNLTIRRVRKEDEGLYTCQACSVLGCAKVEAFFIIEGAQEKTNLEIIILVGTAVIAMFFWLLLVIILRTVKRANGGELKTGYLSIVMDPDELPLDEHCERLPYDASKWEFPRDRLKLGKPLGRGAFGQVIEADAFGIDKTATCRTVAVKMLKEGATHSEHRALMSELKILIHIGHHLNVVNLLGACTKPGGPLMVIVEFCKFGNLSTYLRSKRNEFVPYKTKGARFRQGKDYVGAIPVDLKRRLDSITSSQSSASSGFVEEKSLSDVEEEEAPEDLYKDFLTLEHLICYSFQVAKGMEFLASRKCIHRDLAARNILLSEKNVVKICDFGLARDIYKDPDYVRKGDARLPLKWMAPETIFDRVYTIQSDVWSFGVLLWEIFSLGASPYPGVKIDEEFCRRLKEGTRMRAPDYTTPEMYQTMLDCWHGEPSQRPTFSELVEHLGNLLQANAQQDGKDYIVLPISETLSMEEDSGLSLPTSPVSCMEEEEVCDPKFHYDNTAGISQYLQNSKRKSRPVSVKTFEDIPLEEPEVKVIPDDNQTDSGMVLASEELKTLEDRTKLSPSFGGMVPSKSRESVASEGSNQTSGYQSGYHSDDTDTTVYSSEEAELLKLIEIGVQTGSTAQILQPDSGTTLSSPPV
Description: as §1

EGFR = target: T7, EGFR (Homo sapiens, UniProt P00533); conditions: read-out: percentage of the remaining kinase activity
T7 construct: purchased Research Biology Corp. (http://www.reactionbiology.com)
T7 sequence (P00533 25-1210): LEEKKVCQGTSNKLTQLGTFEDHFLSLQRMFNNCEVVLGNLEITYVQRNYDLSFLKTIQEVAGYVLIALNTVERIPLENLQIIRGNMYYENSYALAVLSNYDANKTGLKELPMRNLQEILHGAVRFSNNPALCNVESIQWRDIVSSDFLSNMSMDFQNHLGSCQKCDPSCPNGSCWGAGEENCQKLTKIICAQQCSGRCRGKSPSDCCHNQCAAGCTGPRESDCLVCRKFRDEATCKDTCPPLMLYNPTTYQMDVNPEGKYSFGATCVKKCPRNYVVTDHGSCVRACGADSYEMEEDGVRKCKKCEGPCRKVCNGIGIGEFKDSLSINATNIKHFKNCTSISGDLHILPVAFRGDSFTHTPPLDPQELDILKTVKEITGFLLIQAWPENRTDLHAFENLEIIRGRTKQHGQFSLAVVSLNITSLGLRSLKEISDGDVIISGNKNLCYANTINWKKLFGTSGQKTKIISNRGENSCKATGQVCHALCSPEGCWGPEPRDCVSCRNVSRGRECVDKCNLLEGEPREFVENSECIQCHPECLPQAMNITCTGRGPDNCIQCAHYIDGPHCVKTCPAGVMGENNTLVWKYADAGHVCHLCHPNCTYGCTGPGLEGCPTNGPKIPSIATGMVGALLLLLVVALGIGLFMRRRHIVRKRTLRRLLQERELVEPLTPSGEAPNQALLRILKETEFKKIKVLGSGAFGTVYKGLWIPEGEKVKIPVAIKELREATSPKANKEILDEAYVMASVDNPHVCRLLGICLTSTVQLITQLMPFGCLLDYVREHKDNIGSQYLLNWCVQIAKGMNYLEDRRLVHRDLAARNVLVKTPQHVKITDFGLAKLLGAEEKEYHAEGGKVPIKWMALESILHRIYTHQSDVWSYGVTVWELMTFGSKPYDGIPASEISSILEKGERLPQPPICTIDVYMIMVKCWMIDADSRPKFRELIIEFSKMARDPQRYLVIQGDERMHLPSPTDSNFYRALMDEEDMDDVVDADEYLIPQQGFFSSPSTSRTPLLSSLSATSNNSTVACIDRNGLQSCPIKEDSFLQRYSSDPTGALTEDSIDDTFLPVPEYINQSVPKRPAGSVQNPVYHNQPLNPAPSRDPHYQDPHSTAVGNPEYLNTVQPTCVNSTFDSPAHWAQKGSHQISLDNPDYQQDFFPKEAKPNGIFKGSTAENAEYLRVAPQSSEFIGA
Description: as §1

GSK3B = GSK3B (Homo sapiens, UniProt P49841); conditions: read-out: percentage of the remaining kinase activity
Sequence of GSK3B (P49841 whole entry): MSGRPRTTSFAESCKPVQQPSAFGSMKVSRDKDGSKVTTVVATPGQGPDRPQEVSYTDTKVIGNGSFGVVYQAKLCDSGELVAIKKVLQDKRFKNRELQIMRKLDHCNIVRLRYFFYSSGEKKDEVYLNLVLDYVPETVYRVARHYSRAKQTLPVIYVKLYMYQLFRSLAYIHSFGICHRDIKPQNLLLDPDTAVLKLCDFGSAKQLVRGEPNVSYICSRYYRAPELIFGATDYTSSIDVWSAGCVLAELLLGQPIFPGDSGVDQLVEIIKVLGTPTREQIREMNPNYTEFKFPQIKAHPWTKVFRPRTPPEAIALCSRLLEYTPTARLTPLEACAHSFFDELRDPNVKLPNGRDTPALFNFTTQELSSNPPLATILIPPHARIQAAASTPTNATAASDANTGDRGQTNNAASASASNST
Description: as §1

RET = RET (Homo sapiens, UniProt P07949); conditions: read-out: percentage of the remaining kinase activity
Description: as §1

PAK4 = PAK4 (Homo sapiens, UniProt O96013); conditions: read-out: percentage of the remaining kinase activity
Sequence of PAK4 (O96013 whole entry): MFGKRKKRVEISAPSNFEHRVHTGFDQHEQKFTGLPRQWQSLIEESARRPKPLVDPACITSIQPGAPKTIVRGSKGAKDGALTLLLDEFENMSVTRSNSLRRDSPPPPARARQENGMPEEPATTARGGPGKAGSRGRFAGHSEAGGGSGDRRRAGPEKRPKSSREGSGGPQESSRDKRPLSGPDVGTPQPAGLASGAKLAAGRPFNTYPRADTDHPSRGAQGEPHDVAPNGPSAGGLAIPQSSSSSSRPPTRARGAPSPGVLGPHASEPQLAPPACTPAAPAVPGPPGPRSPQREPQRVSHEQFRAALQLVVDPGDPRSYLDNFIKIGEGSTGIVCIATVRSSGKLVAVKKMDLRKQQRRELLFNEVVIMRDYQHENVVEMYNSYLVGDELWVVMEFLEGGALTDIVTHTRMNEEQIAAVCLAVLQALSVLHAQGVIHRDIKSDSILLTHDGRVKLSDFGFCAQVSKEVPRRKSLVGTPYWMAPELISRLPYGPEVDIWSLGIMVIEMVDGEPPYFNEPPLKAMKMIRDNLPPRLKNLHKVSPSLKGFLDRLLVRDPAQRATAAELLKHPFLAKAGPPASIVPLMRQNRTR
Description: as §1

Row | Compound | remaining activity at 0.5 µM (JAK2; JAK2, inhibitor at 500 nM) [%] | remaining activity at 0.5 µM (PDPK1; PDPK1, inhibitor at 500 nM) [%] | remaining activity at 0.5 µM (INSR; INSR, inhibitor at 500 nM) [%] | remaining activity at 0.5 µM (STK16; STK16, inhibitor at 500 nM) [%] | remaining activity at 0.5 µM (MAP3K7; MAP3K7, inhibitor at 500 nM) [%] | remaining activity at 0.5 µM (OXSR1; OXSR1, inhibitor at 500 nM) [%] | remaining activity at 0.5 µM (KDR; KDR, inhibitor at 500 nM) [%] | remaining activity at 0.5 µM (CAMK2D; CAMK2D, inhibitor at 500 nM) [%] | remaining activity at 0.5 µM (EGFR; EGFR, inhibitor at 500 nM) [%] | remaining activity at 0.5 µM (GSK3B; GSK3B, inhibitor at 500 nM) [%] | remaining activity at 0.5 µM (AXL; AXL, inhibitor at 500 nM) [%] | remaining activity at 0.5 µM (RET; RET, inhibitor at 500 nM) [%] | remaining activity at 0.5 µM (PAK4; PAK4, inhibitor at 500 nM) [%] | further results
1 | CN[C@@H]1C[C@H]2O[C@@](C)([C@@H]1OC)n1c3ccccc3c3c4c(c5c6ccccc6n2c5c31)C(=O)NC4 [STU, staurosporine, reference compound] | 0.8 | -1.8 | – | – | – | – | – | – | – | – | – | – | – | remaining activity at 0.5 µM (INSR): 16.2%; remaining activity at 0.5 µM (STK16): 52.5%; remaining activity at 0.5 µM (OXSR1): 15.8%; remaining activity at 0.5 µM (CAMK2D): 0.4%; remaining activity at 0.5 µM (AXL): 8.8%
2 | COC1C(N(C)Cc2ccc(-c3ccccc3)cc2)CC2OC1(C)n1c3ccccc3c3c4c(c5c6ccccc6n2c5c31)C(=O)NC4 (stereo not shown) [Compound 9] | 4.4 | 2.7 | 79.1 | 103 | 69.4 | 94.7 | 43.6 | 1.1 | 96.2 | 46.6 | 37.6 | 14.8 | 91.8 | –
3 | COC1C(N(C)CCOc2cccc([N+](=O)[O-])c2)CC2OC1(C)n1c3ccccc3c3c4c(c5c6ccccc6n2c5c31)C(=O)NC4 (stereo not shown) [Compound 8] | – | – | – | – | – | – | – | – | – | – | – | – | – | remaining activity at 0.5 µM (INSR): 83.1%; remaining activity at 0.5 µM (STK16): 94%; remaining activity at 0.5 µM (MAP3K7): 63.5%; remaining activity at 0.5 µM (OXSR1): 102%; remaining activity at 0.5 µM (JAK2): 5.2%; remaining activity at 0.5 µM (KDR): 43.3%; remaining activity at 0.5 µM (CAMK2D): 0.3%; remaining activity at 0.5 µM (PDPK1): 4.7%; remaining activity at 0.5 µM (EGFR): 102%; remaining activity at 0.5 µM (GSK3B): 51.8%; remaining activity at 0.5 µM (AXL): 46.3%; remaining activity at 0.5 µM (RET): 16.2%; remaining activity at 0.5 µM (PAK4): 99.9%
4 | COC1C(N(C)C(=O)C(N)CCC(=O)OC(C)(C)C)CC2OC1(C)n1c3ccccc3c3c4c(c5c6ccccc6n2c5c31)C(=O)NC4 (stereo not shown) [Compound 6] | 39.6 | 3.4 | 72.3 | 94 | 84.2 | 111 | 42.4 | 12.7 | 108 | 79.7 | 60.9 | 34.2 | 80.8 | –
5 | COC1C(N(C)C(=O)C(N)Cc2cn(C(=O)OC(C)(C)C)c3ccccc23)CC2OC1(C)n1c3ccccc3c3c4c(c5c6ccccc6n2c5c31)C(=O)NC4 (stereo not shown) [Compound 2] | 70 | 81 | 97.9 | 105 | 103 | 116 | 102 | 16.1 | 110 | 94.2 | 100 | 101 | 110 | IC50 (CAMK2D; CAMK2D, inferred from test at 500 nM (FIG. 1)): < 500 nM

Now from value to compound, other results behind:

Row | remaining activity at 0.5 µM (JAK2; JAK2, inhibitor at 500 nM) [%] | remaining activity at 0.5 µM (PDPK1; PDPK1, inhibitor at 500 nM) [%] | remaining activity at 0.5 µM (INSR; INSR, inhibitor at 500 nM) [%] | remaining activity at 0.5 µM (STK16; STK16, inhibitor at 500 nM) [%] | remaining activity at 0.5 µM (MAP3K7; MAP3K7, inhibitor at 500 nM) [%] | remaining activity at 0.5 µM (OXSR1; OXSR1, inhibitor at 500 nM) [%] | remaining activity at 0.5 µM (KDR; KDR, inhibitor at 500 nM) [%] | remaining activity at 0.5 µM (CAMK2D; CAMK2D, inhibitor at 500 nM) [%] | remaining activity at 0.5 µM (EGFR; EGFR, inhibitor at 500 nM) [%] | remaining activity at 0.5 µM (GSK3B; GSK3B, inhibitor at 500 nM) [%] | remaining activity at 0.5 µM (AXL; AXL, inhibitor at 500 nM) [%] | remaining activity at 0.5 µM (RET; RET, inhibitor at 500 nM) [%] | remaining activity at 0.5 µM (PAK4; PAK4, inhibitor at 500 nM) [%] | Compound | further results
6 | 4.4 | 0.5 | 23.1 | 59 | 37.5 | 106 | 6.5 | 2 | 30.5 | 17.9 | 35.4 | 6 | 40.2 | COC1C(N(C)C(=O)C(N)Cc2c[nH]cn2)CC2OC1(C)n1c3ccccc3c3c4c(c5c6ccccc6n2c5c31)C(=O)NC4 (stereo not shown) [Compound 1] | –
7 | 36.4 | 13.3 | 84.8 | 99.8 | 98.6 | 110 | 50.8 | 6.7 | 108 | 86.6 | 77.2 | 63 | 95.2 | COC1C(N(C)C(=O)C(N)Cc2ccc(OC(C)(C)C)cc2)CC2OC1(C)n1c3ccccc3c3c4c(c5c6ccccc6n2c5c31)C(=O)NC4 (stereo not shown) [Compound 4] | –
8 | 1.5 | 0.5 | 32.8 | 51.6 | 27.8 | 100 | 5.4 | 2.3 | 82.2 | 9.6 | 26.8 | 1.6 | 38.4 | COC1C(N(C)C(=O)C(N)CCC(=O)O)CC2OC1(C)n1c3ccccc3c3c4c(c5c6ccccc6n2c5c31)C(=O)NC4 (stereo not shown) [Compound 7] | –
9 | 19.4 | 2 | 69.1 | 86.7 | 70.7 | 109 | 16.3 | 10.1 | 93.1 | 29.4 | 60.3 | 21.3 | 53.3 | COC1C(N(C)C(=O)C(N)Cc2ccc(O)cc2)CC2OC1(C)n1c3ccccc3c3c4c(c5c6ccccc6n2c5c31)C(=O)NC4 (stereo not shown) [Compound 5] | –
